The test system of assay [1] is rats with EAE (MOG-induced Experimental Autoimmune Encephalitis). The assay is described as follows: EAE model, motor score after single intrathecal bolus.
Procedure: The EAE model described above was used. Motor score was assessed three days before and daily post MOG administration (8.25 ug intradermally). At the onset of motor symptoms (partial tail paralysis, motor score 1) rats were randomly injected with an A2A agonist, CGS21680 (3-[4-[2-[[6-amino-9-[(2R,3R,4S,5S)-5-(ethylcarbamoyl)-3,4-dihydroxy-oxolan-2-yl]purin-2-yl]amino]ethyl]phenyl]propanoic acid) (10 μM) or vehicle.
Assay [2] has as its system rats with EAE. The experiment in a line: EAE model, survival curve (time to motor score 6 or higher). The class given is in vivo, Male Dark Agouti rats. The source says:
In a separate group of rats from Example 1, MOG was intradermally administered as described above. […] The time at which motor score reached 6 or higher after the onset of motor symptoms is represented on the survival curve shown in FIG. 2. […] A single intrathecal injection of an A2A agonist, CGS21680, improved survival percentage in rats with EAE.

Assay [3] has as its system neuropathic pain. To be noted: duration of effect ~35 days; cited from earlier work.
Assay [4] deals with rat spines (EAE). The experiment in a line: FLAIR and T2-weighted MRI on rat spines in EAE. As to conditions: ATL313 treated animals with preserved motor scores. The class given is in vivo. As to the method:
ATL313 (4-{3-[6-amino-9-(5-cyclopropylcarbamoyl-3,4-dihydroxy-tetrahydro-furan-2-yl)-9H-purin-2-yl]-prop-2-ynyl}-piperidine-1-carboxylic acid methyl ester) (single bolus 1 μM-not shown and 10 μM) was used in the EAE model as described above (8-9 rats/group). The change in motor symptoms and the survival curve for ATL313 (10 μM) are shown in FIGS. 4A and 4B, respectively. 1 μM ATL313 produced a reduction in motor score lasting approximately 10 days.

Assay [5] has as its system cd68 (classically activated macrophage marker). The experiment in a line: Immunohistochemistry of the dorsal spinal cord, cd68. The class given is in vivo, rats. To be noted: motor score 6 or higher or 24 days post onset, vs vehicle, P<0.05 (FIG. 3).
The subject of assay [6] is OX-42 (microglial activation marker). The experiment in a line: Immunohistochemistry of the dorsal spinal cord, OX-42. The assay is classed as in vivo, rats. To be noted: motor score 6 or higher or 24 days post onset, vs vehicle, P<0.05 (FIG. 3).

“Also recorded” adds a separate entry of the source. Where only a bound is given, the exact number is not on record here.

Consider `COC(=O)N1CCC(CC#Cc2nc(N)c3ncn([C@@H]4O[C@H](C(=O)NC5CC5)C(O)C4O)c3n2)CC1` (stereo in doubt) [ATL313, 4-{3-[6-amino-9-(5-cyclopropylcarbamoyl-3,4-dihydroxy-tetrahydro-furan-2-yl)-9H-purin-2-yl]-prop-2-ynyl}-piperidine-1-carboxylic acid methyl ester], for which the “duration of attenuation of motor effects of EAE, at worst” value in assay [1] (5 ng intrathecal single bolus) is on record as ~35 days. Also, the “progression of motor impairment/dysfunction induced by EAE” value in assay [1] (5 ng intrathecal single bolus at initial onset of motor impairment (FIG. 5A)) was “good attenuation of progression of motor impairment/dysfunction”. For the same compound, the “number of animals where motor deterioration is arrested with no further progression” value in assay [1] (5 ng intrathecal, first group (FIG. 5B)) stood at 6. Further, the “number of rats whose motor symptoms continued on the usual course at around day 35” value in assay [1] (5 ng intrathecal, second group (FIG. 5C)) was determined as 3. The “duration of reduction in motor score” value in assay [1] (1 μM single intrathecal bolus) is recorded as “approximately 10 days”. Also, the “duration of arrest of progression of motor score symptoms” value in assay [1] (10 μM single intrathecal injection (FIG. 4A)) is > 80 days. In addition, the “duration of suppression of paralysis” value in assay [1] (FIG. 6 legend, other sub-group) is listed as ~4 week. The paralysis result in assay [1] (FIG. 6 legend, surviving ATL313 rats) is listed as “arrests paralysis in every surviving ATL313 rat”. The rats still alive in assay [2] (10 μM intrathecal, at 70 days, with stabilized motor scores (FIG. 4B)) is 6/9. For the same compound, the survival rate result in assay [2] (10 μM single intrathecal injection, MOG+ATL313 vs MOG+vehicle (FIG. 4B)) was “increased survival rate”. Further, the survival result in assay [2] (FIG. 6 legend) is “markedly enhances survival”. In assay [3], the neuropathic pain entry was “attenuates neuropathic pain”. For the same compound, the “MRI abnormalities (hyperintensity) of spine” value in assay [4] is “only minimal abnormalities”.
`CCNC(=O)[C@H]1O[C@@H](n2cnc3c(N)nc(NCCc4ccc(CCC(=O)O)cc4)nc32)[C@H](O)[C@@H]1O` [CGS21680, 3-[4-[2-[[6-amino-9-[(2R,3R,4S,5S)-5-(ethylcarbamoyl)-3,4-dihydroxy-oxolan-2-yl]purin-2-yl]amino]ethyl]phenyl]propanoic acid, reference compound]: in assay [1] (10 μM, single intrathecal injection at onset of motor symptoms, vs vehicle (FIG. 1)), the “severity of motor symptoms (motor score)” value is given as “reduced the severity of motor symptoms; also recorded: attenuated motor symptoms”. Moreover, in assay [2] (10 μM intrathecal at onset of motor symptoms, day 25, vs vehicle, P<0.05 (FIG. 2)), the percentage of survival result is reported as “significant difference in percentage of survival”. For the same compound, the cd68 staining entry in assay [5] is “significant reduction”. The OX-42 staining entry in assay [6] is reported as “significant reduction”.
